In patent US20260034044A1, “A PRESERVATIVE COMPOSITION” (AnalytiCon Discovery - Zweigniederlassung der BRAIN Biotech …, priority 2022, published 2026):
Values after ≈ are worked out from the molar mass of the structure shown.

What was measured:
Assay in all cases: Antimicrobial activity (MIC)
Assay type in all cases: cell-based
[1] = test system: Aspergillus brasiliensis DSM 1988; details: DSM1988, potato dextrose broth pH 3.8, visual evaluation, read-out: Minimal Inhibitory Concentration (MIC)
[2] = test system: Byssochlamys fulva DSM 1808; details: Paecilomyces fulvus, DSM1808, potato dextrose broth pH 3.8, visual evaluation, read-out: Minimal Inhibitory Concentration (MIC)
[3] = test system: Candida albicans ATCC10231; details: potato dextrose broth pH 3.8, visual evaluation, read-out: Minimal Inhibitory Concentration (MIC)
[4] = test system: Clostridium sporogenes ATCC 19404; details: ATCC19404, potato dextrose broth pH 3.8, visual evaluation, read-out: Minimal Inhibitory Concentration (MIC)
Method: Compounds are dissolved at a concentration of 20 mg/ml using 100% DMSO. • Preculture: yeast and bacteria are plated on potato dextrose agar, resuspended in potato dextrose broth and CFU via OD measurement determined; adjusting CFU of the strain in PDB pH 3.8. • Preculture: for mycel forming fungi spores were directly used after thawing of cryopreserved stocks of known titre. • Final titre used for the assay: Yeast strains 5*10^3 CFU/ml, Bacteria 1*10^6 CFU/ml, Fungi (spores) 5*10^4 CFU/ml • Potato dextrose broth pH 3.8 was used as assay matrix • 500 ppm (0.05%) of the compounds were screened (final DMSO 2.5% (v/v)) • Volume: 100 μl in 96-well format • Positive controls: potassium sorbate, sodium benzoate & triclosan • 28° C. to 30° C., static incubation • Incubation time depending on spoilage organism between 2 and 8 days • Visual evaluation (per eye, for fungi with binocular magnification) Antimicrobial activities are reported in Table 1.

[5] = test system: Enterobacter cloacae DSM 6234; details: DSM6234, potato dextrose broth pH 3.8, visual evaluation, read-out: Minimal Inhibitory Concentration (MIC)
[6] = test system: Lactobacillus paracasei ssp. paracasei DSM 46331; details: Lacticaseibacillus paracasei, DSM46331, potato dextrose broth pH 3.8, visual evaluation, read-out: Minimal Inhibitory Concentration (MIC)
[7] = test system: Lactobacillus plantarum ssp. plantarum DSM 20174; details: Lactiplantibacillus plantarum, DSM20174, potato dextrose broth pH 3.8, visual evaluation, read-out: Minimal Inhibitory Concentration (MIC)
[8] = test system: Leuconostoc mesenteroides ssp. mesenteroides DSM 20343; details: DSM20343, potato dextrose broth pH 3.8, visual evaluation, read-out: Minimal Inhibitory Concentration (MIC)
[9] = test system: Malassezia furfur DSM 6170; details: DSM6170, potato dextrose broth pH 3.8, visual evaluation, read-out: Minimal Inhibitory Concentration (MIC)
[10] = test system: Pasteurella multocida ssp. multocida DSM 16031; details: DSM16031, potato dextrose broth pH 3.8, visual evaluation, read-out: Minimal Inhibitory Concentration (MIC)

| Compound | MIC [1] [mg/L] | MIC [2] [mg/L] | MIC [3] [mg/L] | MIC [4] [mg/L] | MIC [5] [mg/L] | MIC [6] [mg/L] | MIC [7] [mg/L] | MIC [8] [mg/L] | MIC [9] [mg/L] | MIC [10] [mg/L] |
| --- | --- | --- | --- | --- | --- | --- | --- | --- | --- | --- |
| C[C@H]1CC[C@@]2(OC1)O[C@H]1CC3C4CC[C@H]5C[C@@H](O[C@@H]6O[C@H](CO)[C@H](O[C@@H]7O[C@H](CO)[C@@H](O)[C@H](O[C@@H]8OC[C@@H](O)[C@H](O)[C@H]8O)[C@H]7O[C@@H]7O[C@H](CO)[C@@H](O)[C@H](O)[C@H]7O)[C@H](O)[C@H]6O)[C@H](O)C[C@]5(C)C4=CC(=O)[C@]3(C)[C@H]1[C@@H]2C (stereo partly shown) [A] | > 80 | > 80 | > 80 | 80 (≈ 75.2 µM) | > 80 | > 80 | 40 (≈ 37.6 µM) | > 80 | > 80 | > 80 |
| C[C@H]1CC[C@@]2(OC1)O[C@H]1CC3C4CC[C@H]5C[C@@H](O[C@@H]6O[C@H](CO)[C@H](O[C@@H]7O[C@H](CO)[C@@H](O)[C@H](O)[C@H]7O[C@@H]7O[C@H](CO)[C@@H](O)[C@H](O)[C@H]7O)[C@H](O)[C@H]6O)[C@H](O)C[C@]5(C)C4=CC(=O)[C@]3(C)[C@H]1[C@@H]2C (stereo partly shown) [D] | > 80 | > 80 | > 80 | 80 (≈ 85.9 µM) | > 80 | > 80 | 40 (≈ 43 µM) | > 80 | > 80 | > 80 |
| C[C@@H]1CC[C@@]2(OC1)O[C@H]1CC3C4CC=C5CC(O[C@@H]6O[C@H](CO)[C@@H](O[C@@H]7O[C@@H](C)[C@H](O[C@@H]8O[C@@H](C)[C@H](O)[C@@H](O)[C@H]8O)[C@@H](O)[C@H]7O)[C@H](O)[C@H]6O[C@@H]6O[C@@H](C)[C@H](O)[C@@H](O)[C@H]6O)CC[C@]5(C)C4CC[C@]3(C)[C@@]1(O)[C@@H]2C (stereo partly shown) [B] | > 80 | > 80 | > 80 | 80 (≈ 77.6 µM) | > 80 | > 80 | 400 (≈ 388 µM) | > 80 | 80 (≈ 77.6 µM) | > 80 |
| CC1CC[C@@]2(OC1)O[C@H]1CC3C4CC=C5C[C@@H](O[C@@H]6O[C@H](CO)[C@@H](O[C@@H]7O[C@@H](C)[C@H](O)[C@@H](O)[C@H]7O)[C@H](O)[C@H]6O[C@@H]6O[C@@H](C)[C@H](O)[C@@H](O)[C@H]6O)CC[C@]5(C)C4CC[C@]3(C)[C@@]1(O)[C@@H]2C (stereo partly shown) [C] | > 80 | > 80 | > 80 | 80 (≈ 90.4 µM) | > 80 | > 80 | 400 (≈ 452 µM) | > 80 | 80 (≈ 90.4 µM) | > 80 |
